Data published in ChEMBL document CHEMBL4699440, “Comprehensive review on the anti-bacterial activity of 1,2,3-triazole hybrids” (Eur J Med Chem, 2019).
Values after ≈ are worked out from the molar mass of the structure shown.

Each molecule was assayed on Escherichia coli (assay: Antibacterial activity against Escherichia coli MTCC […] by serial dilution method). Details: not given.
Assay type: functional

Row | SMILES | MIC [µM]
1 | Cc1cc(O)c(C(=O)/C=C/c2ccc(OCc3cn(Cc4ccc(F)cc4)nn3)cc2)c(=O)o1 | 3 (≈ 1.38 µg/mL)
2 | Cc1cc(O)c(C(=O)/C=C/c2ccc(OCc3cn(Cc4ccccc4C)nn3)cc2)c(=O)o1 | 3 (≈ 1.37 µg/mL)
3 | Cc1cc(O)c(C(=O)/C=C/c2ccc(OCc3cn(Cc4ccc(Br)cc4)nn3)cc2)c(=O)o1 | 3 (≈ 1.57 µg/mL)
4 | Cc1cc(O)c(C(=O)/C=C/c2ccc(OCc3cn(Cc4ccccc4[N+](=O)[O-])nn3)cc2)c(=O)o1 | 3 (≈ 1.47 µg/mL)
5 | Cc1cc(O)c(C(=O)/C=C/c2ccc(OCc3cn(Cc4cccc([N+](=O)[O-])c4)nn3)cc2)c(=O)o1 | 3 (≈ 1.47 µg/mL)
6 | Cc1cc(O)c(C(=O)/C=C/c2ccc(OCc3cn(-c4ccccc4)nn3)cc2)c(=O)o1 | 3 (≈ 1.29 µg/mL)
7 | Cc1cc(O)c(C(=O)/C=C/c2ccc(OCc3cn(-c4ccc(Br)cc4)nn3)cc2)c(=O)o1 | 3 (≈ 1.52 µg/mL)
8 | Cc1cc(O)c(C(=O)/C=C/c2ccc(OCc3cn(-c4ccc([N+](=O)[O-])cc4)nn3)cc2)c(=O)o1 | 3 (≈ 1.42 µg/mL)
9 | Cc1cc(O)c(C(=O)/C=C/c2ccc(OCc3cn(Cc4ccccc4F)nn3)cc2)c(=O)o1 | 3 (≈ 1.38 µg/mL)

What follows are molecules tested on Bacillus subtilis (assay: Antibacterial activity against Bacillus subtilis MTCC 441 by serial dilution method). Details: not given.
Assay type: functional

Row | SMILES | MIC [µM]
10 | Cc1cc(O)c(C(=O)/C=C/c2ccc(OCc3cn(Cc4ccc(F)cc4)nn3)cc2)c(=O)o1 | 3 (≈ 1.38 µg/mL)
11 | Cc1cc(O)c(C(=O)/C=C/c2ccc(OCc3cn(Cc4ccccc4C)nn3)cc2)c(=O)o1 | 3 (≈ 1.37 µg/mL)
12 | Cc1cc(O)c(C(=O)/C=C/c2ccc(OCc3cn(Cc4ccc(Br)cc4)nn3)cc2)c(=O)o1 | 3 (≈ 1.57 µg/mL)
13 | Cc1cc(O)c(C(=O)/C=C/c2ccc(OCc3cn(Cc4ccccc4[N+](=O)[O-])nn3)cc2)c(=O)o1 | 3 (≈ 1.47 µg/mL)
14 | Cc1cc(O)c(C(=O)/C=C/c2ccc(OCc3cn(Cc4cccc([N+](=O)[O-])c4)nn3)cc2)c(=O)o1 | 3 (≈ 1.47 µg/mL)
15 | Cc1cc(O)c(C(=O)/C=C/c2ccc(OCc3cn(-c4ccccc4)nn3)cc2)c(=O)o1 | 3 (≈ 1.29 µg/mL)
16 | Cc1cc(O)c(C(=O)/C=C/c2ccc(OCc3cn(-c4ccc(Br)cc4)nn3)cc2)c(=O)o1 | 3 (≈ 1.52 µg/mL)
17 | Cc1cc(O)c(C(=O)/C=C/c2ccc(OCc3cn(-c4ccc([N+](=O)[O-])cc4)nn3)cc2)c(=O)o1 | 3 (≈ 1.42 µg/mL)
18 | Cc1cc(O)c(C(=O)/C=C/c2ccc(OCc3cn(Cc4ccccc4F)nn3)cc2)c(=O)o1 | 3 (≈ 1.38 µg/mL)

These molecules were tested on Staphylococcus epidermidis (assay: Antibacterial activity against Staphylococcus epidermidis MTCC 6880 by serial dilution method). Details: not given.
Assay type: functional

Row | SMILES | MIC [µM]
19 | Cc1cc(O)c(C(=O)/C=C/c2ccc(OCc3cn(Cc4ccc(F)cc4)nn3)cc2)c(=O)o1 | 3 (≈ 1.38 µg/mL)
20 | Cc1cc(O)c(C(=O)/C=C/c2ccc(OCc3cn(Cc4ccccc4C)nn3)cc2)c(=O)o1 | 3 (≈ 1.37 µg/mL)
21 | Cc1cc(O)c(C(=O)/C=C/c2ccc(OCc3cn(Cc4ccc(Br)cc4)nn3)cc2)c(=O)o1 | 3 (≈ 1.57 µg/mL)
22 | Cc1cc(O)c(C(=O)/C=C/c2ccc(OCc3cn(Cc4ccccc4[N+](=O)[O-])nn3)cc2)c(=O)o1 | 3 (≈ 1.47 µg/mL)
23 | Cc1cc(O)c(C(=O)/C=C/c2ccc(OCc3cn(Cc4cccc([N+](=O)[O-])c4)nn3)cc2)c(=O)o1 | 3 (≈ 1.47 µg/mL)
24 | Cc1cc(O)c(C(=O)/C=C/c2ccc(OCc3cn(-c4ccccc4)nn3)cc2)c(=O)o1 | 3 (≈ 1.29 µg/mL)
25 | Cc1cc(O)c(C(=O)/C=C/c2ccc(OCc3cn(-c4ccc(Br)cc4)nn3)cc2)c(=O)o1 | 3 (≈ 1.52 µg/mL)
26 | Cc1cc(O)c(C(=O)/C=C/c2ccc(OCc3cn(-c4ccc([N+](=O)[O-])cc4)nn3)cc2)c(=O)o1 | 3 (≈ 1.42 µg/mL)
27 | Cc1cc(O)c(C(=O)/C=C/c2ccc(OCc3cn(Cc4ccccc4F)nn3)cc2)c(=O)o1 | 3 (≈ 1.38 µg/mL)

These molecules were tested on Aspergillus niger (assay: Antibacterial activity against Aspergillus niger MTCC 8189 by serial dilution method). Details: not given.
Assay type: functional

Row | SMILES | MIC [µM]
28 | Cc1cc(O)c(C(=O)/C=C/c2ccc(OCc3cn(Cc4ccc(F)cc4)nn3)cc2)c(=O)o1 | 3 (≈ 1.38 µg/mL)
29 | Cc1cc(O)c(C(=O)/C=C/c2ccc(OCc3cn(Cc4ccccc4C)nn3)cc2)c(=O)o1 | 3 (≈ 1.37 µg/mL)
30 | Cc1cc(O)c(C(=O)/C=C/c2ccc(OCc3cn(Cc4ccc(Br)cc4)nn3)cc2)c(=O)o1 | 3 (≈ 1.57 µg/mL)
31 | Cc1cc(O)c(C(=O)/C=C/c2ccc(OCc3cn(Cc4ccccc4[N+](=O)[O-])nn3)cc2)c(=O)o1 | 3 (≈ 1.47 µg/mL)
32 | Cc1cc(O)c(C(=O)/C=C/c2ccc(OCc3cn(Cc4cccc([N+](=O)[O-])c4)nn3)cc2)c(=O)o1 | 3 (≈ 1.47 µg/mL)
33 | Cc1cc(O)c(C(=O)/C=C/c2ccc(OCc3cn(-c4ccccc4)nn3)cc2)c(=O)o1 | 3 (≈ 1.29 µg/mL)
34 | Cc1cc(O)c(C(=O)/C=C/c2ccc(OCc3cn(-c4ccc(Br)cc4)nn3)cc2)c(=O)o1 | 3 (≈ 1.52 µg/mL)
35 | Cc1cc(O)c(C(=O)/C=C/c2ccc(OCc3cn(-c4ccc([N+](=O)[O-])cc4)nn3)cc2)c(=O)o1 | 3 (≈ 1.42 µg/mL)
36 | Cc1cc(O)c(C(=O)/C=C/c2ccc(OCc3cn(Cc4ccccc4F)nn3)cc2)c(=O)o1 | 3 (≈ 1.38 µg/mL)

Each molecule was assayed on Pseudomonas aeruginosa (assay: Antibacterial activity against Pseudomonas aeruginosa MTCC 424 by serial dilution method). Details: not given.
Assay type: functional

Row | SMILES | MIC [µM]
37 | Cc1cc(O)c(C(=O)/C=C/c2ccc(OCc3cn(Cc4ccc(F)cc4)nn3)cc2)c(=O)o1 | 3 (≈ 1.38 µg/mL)
38 | Cc1cc(O)c(C(=O)/C=C/c2ccc(OCc3cn(Cc4ccccc4C)nn3)cc2)c(=O)o1 | 3 (≈ 1.37 µg/mL)
39 | Cc1cc(O)c(C(=O)/C=C/c2ccc(OCc3cn(Cc4ccc(Br)cc4)nn3)cc2)c(=O)o1 | 3 (≈ 1.57 µg/mL)
40 | Cc1cc(O)c(C(=O)/C=C/c2ccc(OCc3cn(Cc4ccccc4[N+](=O)[O-])nn3)cc2)c(=O)o1 | 3 (≈ 1.47 µg/mL)
41 | Cc1cc(O)c(C(=O)/C=C/c2ccc(OCc3cn(Cc4cccc([N+](=O)[O-])c4)nn3)cc2)c(=O)o1 | 3 (≈ 1.47 µg/mL)
42 | Cc1cc(O)c(C(=O)/C=C/c2ccc(OCc3cn(-c4ccccc4)nn3)cc2)c(=O)o1 | 3 (≈ 1.29 µg/mL)
43 | Cc1cc(O)c(C(=O)/C=C/c2ccc(OCc3cn(-c4ccc(Br)cc4)nn3)cc2)c(=O)o1 | 3 (≈ 1.52 µg/mL)
44 | Cc1cc(O)c(C(=O)/C=C/c2ccc(OCc3cn(-c4ccc([N+](=O)[O-])cc4)nn3)cc2)c(=O)o1 | 3 (≈ 1.42 µg/mL)
45 | Cc1cc(O)c(C(=O)/C=C/c2ccc(OCc3cn(Cc4ccccc4F)nn3)cc2)c(=O)o1 | 3 (≈ 1.38 µg/mL)

What follows are molecules tested on Candida albicans (assay: Antibacterial activity against Candida albicans MTCC 227 by serial dilution method). Details: not given.
Assay type: functional

Row | SMILES | MIC [µM]
46 | Cc1cc(O)c(C(=O)/C=C/c2ccc(OCc3cn(Cc4ccc(F)cc4)nn3)cc2)c(=O)o1 | 3 (≈ 1.38 µg/mL)
47 | Cc1cc(O)c(C(=O)/C=C/c2ccc(OCc3cn(Cc4ccccc4C)nn3)cc2)c(=O)o1 | 3 (≈ 1.37 µg/mL)
48 | Cc1cc(O)c(C(=O)/C=C/c2ccc(OCc3cn(Cc4ccc(Br)cc4)nn3)cc2)c(=O)o1 | 3 (≈ 1.57 µg/mL)
49 | Cc1cc(O)c(C(=O)/C=C/c2ccc(OCc3cn(Cc4ccccc4[N+](=O)[O-])nn3)cc2)c(=O)o1 | 3 (≈ 1.47 µg/mL)
50 | Cc1cc(O)c(C(=O)/C=C/c2ccc(OCc3cn(Cc4cccc([N+](=O)[O-])c4)nn3)cc2)c(=O)o1 | 3 (≈ 1.47 µg/mL)
51 | Cc1cc(O)c(C(=O)/C=C/c2ccc(OCc3cn(-c4ccccc4)nn3)cc2)c(=O)o1 | 3 (≈ 1.29 µg/mL)
52 | Cc1cc(O)c(C(=O)/C=C/c2ccc(OCc3cn(-c4ccc(Br)cc4)nn3)cc2)c(=O)o1 | 3 (≈ 1.52 µg/mL)
53 | Cc1cc(O)c(C(=O)/C=C/c2ccc(OCc3cn(-c4ccc([N+](=O)[O-])cc4)nn3)cc2)c(=O)o1 | 3 (≈ 1.42 µg/mL)
54 | Cc1cc(O)c(C(=O)/C=C/c2ccc(OCc3cn(Cc4ccccc4F)nn3)cc2)c(=O)o1 | 3 (≈ 1.38 µg/mL)

These molecules were tested on Escherichia coli (assay: Antibacterial activity against Escherichia coli assessed as inhibition zone at 10 mg/ml). Details: read-out: IZ.
Assay type: functional

Row | SMILES | zone of inhibition at 10000 µg/mL [mm]
55 | Cc1ccc2nc(Cl)c(Cn3cc(COc4ccccc4)nn3)cc2c1 | 7
56 | COc1ccc2nc(Cl)c(Cn3cc(COc4ccccc4)nn3)cc2c1 | 7
57 | Cc1ccc(OCc2cn(Cc3cc4cc(C)ccc4nc3Cl)nn2)cc1 | 7
58 | Clc1ccccc1OCc1cn(Cc2cc3ccccc3nc2Cl)nn1 | 7
59 | Clc1ccc(OCc2cn(Cc3cc4ccccc4nc3Cl)nn2)cc1 | 7
60 | COc1ccc2nc(Cl)c(Cn3cc(COc4ccc(C)cc4)nn3)cc2c1 | 7

The molecules below were run on Klebsiella pneumoniae (assay: Antibacterial activity against Klebsiella pneumoniae assessed as inhibition zone at 10 mg/ml). Details: read-out: IZ.
Assay type: functional

Row | SMILES | zone of inhibition at 10000 µg/mL [mm]
61 | Cc1ccc2nc(Cl)c(Cn3cc(COc4ccccc4)nn3)cc2c1 | 7
62 | COc1ccc2nc(Cl)c(Cn3cc(COc4ccccc4)nn3)cc2c1 | 7
63 | Cc1ccc(OCc2cn(Cc3cc4cc(C)ccc4nc3Cl)nn2)cc1 | 7
64 | Clc1ccccc1OCc1cn(Cc2cc3ccccc3nc2Cl)nn1 | 7
65 | Clc1ccc(OCc2cn(Cc3cc4ccccc4nc3Cl)nn2)cc1 | 7
66 | COc1ccc2nc(Cl)c(Cn3cc(COc4ccc(C)cc4)nn3)cc2c1 | 7

Each molecule was assayed on Proteus vulgaris (assay: Antibacterial activity against Proteus vulgaris assessed as inhibition zone at 10 mg/ml). Details: read-out: IZ.
Assay type: functional

Row | SMILES | zone of inhibition at 10000 µg/mL [mm]
67 | Cc1ccc2nc(Cl)c(Cn3cc(COc4ccccc4)nn3)cc2c1 | 7
68 | COc1ccc2nc(Cl)c(Cn3cc(COc4ccccc4)nn3)cc2c1 | 7
69 | Cc1ccc(OCc2cn(Cc3cc4cc(C)ccc4nc3Cl)nn2)cc1 | 7
70 | Clc1ccccc1OCc1cn(Cc2cc3ccccc3nc2Cl)nn1 | 7
71 | Clc1ccc(OCc2cn(Cc3cc4ccccc4nc3Cl)nn2)cc1 | 7
72 | COc1ccc2nc(Cl)c(Cn3cc(COc4ccc(C)cc4)nn3)cc2c1 | 7

These molecules were tested on Salmonella typhi (assay: Antibacterial activity against Salmonella typhi assessed as inhibition zone at 10 mg/ml). Details: Salmonella enterica, read-out: IZ.
Assay type: functional, Salmonella enterica subsp. enterica serovar Typhi

Row | SMILES | zone of inhibition at 10000 µg/mL [mm]
73 | Cc1ccc2nc(Cl)c(Cn3cc(COc4ccccc4)nn3)cc2c1 | 7
74 | COc1ccc2nc(Cl)c(Cn3cc(COc4ccccc4)nn3)cc2c1 | 7
75 | Cc1ccc(OCc2cn(Cc3cc4cc(C)ccc4nc3Cl)nn2)cc1 | 7
76 | Clc1ccccc1OCc1cn(Cc2cc3ccccc3nc2Cl)nn1 | 7
77 | Clc1ccc(OCc2cn(Cc3cc4ccccc4nc3Cl)nn2)cc1 | 7
78 | COc1ccc2nc(Cl)c(Cn3cc(COc4ccc(C)cc4)nn3)cc2c1 | 7

What follows are molecules tested on Pseudomonas aeruginosa (assay: Antibacterial activity against Pseudomonas aeruginosa assessed as inhibition zone at 10 mg/ml). Details: read-out: IZ.
Assay type: functional

Row | SMILES | zone of inhibition at 10000 µg/mL [mm]
79 | Cc1ccc2nc(Cl)c(Cn3cc(COc4ccccc4)nn3)cc2c1 | 7
80 | COc1ccc2nc(Cl)c(Cn3cc(COc4ccccc4)nn3)cc2c1 | 7
81 | Cc1ccc(OCc2cn(Cc3cc4cc(C)ccc4nc3Cl)nn2)cc1 | 7
82 | Clc1ccccc1OCc1cn(Cc2cc3ccccc3nc2Cl)nn1 | 7
83 | Clc1ccc(OCc2cn(Cc3cc4ccccc4nc3Cl)nn2)cc1 | 7
84 | COc1ccc2nc(Cl)c(Cn3cc(COc4ccc(C)cc4)nn3)cc2c1 | 7
